Assay results from ChEMBL document CHEMBL1128259, “Ketomethylene and (cyanomethylene)amino pseudopeptide analogues of the C-terminal hexapeptide of neurotensin” (J Med Chem, 1995).
Peptide text beside a SMILES is read from it. * marks the point of attachment. X2 = CC[C@@H](C)[C@H](CN[C@@H](Cc1ccccc1)C(=O)O)N*

Experiments:
[1] = biological target: T1, Neurotensin receptor type 1 (Rattus norvegicus, UniProt P20789); experiment: IC50 was measured as binding to rat cortex membranes using [3H]- NT(neurotensin) as tracer
T1 sequence (P20789 whole entry): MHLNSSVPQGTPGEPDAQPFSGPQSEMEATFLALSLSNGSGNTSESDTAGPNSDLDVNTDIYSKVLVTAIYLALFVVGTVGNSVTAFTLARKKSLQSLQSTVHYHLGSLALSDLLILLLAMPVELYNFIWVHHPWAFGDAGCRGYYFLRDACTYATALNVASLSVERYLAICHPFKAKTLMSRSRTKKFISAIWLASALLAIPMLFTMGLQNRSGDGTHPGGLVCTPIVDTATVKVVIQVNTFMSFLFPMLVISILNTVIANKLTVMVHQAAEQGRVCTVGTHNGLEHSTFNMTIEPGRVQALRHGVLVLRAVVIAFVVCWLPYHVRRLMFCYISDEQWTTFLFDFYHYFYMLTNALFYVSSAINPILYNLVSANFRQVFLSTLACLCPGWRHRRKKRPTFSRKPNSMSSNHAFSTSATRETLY

[2] = biological target: Neurotensin receptor type 1 (Rattus norvegicus) (UniProt P20789); experiment: Relative potency at neurotensin receptor compared to neurotensin (NT8-13)
Neurotensin receptor type 1 (Rattus norvegicus), sequence (P20789 whole entry): as above

[3] = biological target: T1, Neurotensin receptor type 1; experiment: IC50 was measured as binding to rat cortex membranes using [3H]- NT (neurotensin) as tracer

Row | IC50 [1] [nM] | Relative potency [2] | IC50 [3] [nM] | SMILES
1 | 6310 |  |  | CC[C@H](C)[C@H](NC[C@H](Cc1ccc(O)cc1)NC(=O)[C@@H]1CCCN1C(=O)[C@H](CCCN=C(N)N)NC(=O)[C@@H](N)CCCN=C(N)N)C(=O)N[C@@H](CC(C)C)C(=O)O
2 | 5 |  |  | CC[C@H](C)[C@H](NC(=O)[C@H](Cc1ccc(O)cc1)NC(=O)[C@@H]1CCCN1C(=O)[C@H](CCCNC(=N)N)NC(=O)[C@@H](N)CCCNC(=N)N)C(=O)N[C@@H](Cc1ccccc1)C(=O)O
3 | 8 |  |  | CC(C)C[C@H](NC(=O)[C@H](Cc1ccccc1)NC(=O)[C@H](Cc1ccc(O)cc1)NC(=O)[C@@H]1CCCN1C(=O)[C@H](CCCN=C(N)N)NC(=O)[C@@H](N)CCCN=C(N)N)C(=O)O
4 |  | 5.5 | 180 | CC[C@H](C)[C@H](NC(C#N)[C@@H](Cc1ccc(O)cc1)NC(=O)[C@@H]1CCCN1C(=O)[C@H](CCCN=C(N)N)NC(=O)[C@@H](N)CCCN=C(N)N)C(=O)N[C@@H](CC(C)C)C(=O)O (some centres undefined)
5 | 1200 | 0.8 |  | CC(C)C[C@H](NC(=O)[C@H](CC(=O)[C@H](Cc1ccc(O)cc1)NC(=O)[C@@H]1CCCN1C(=O)[C@H](CCCNC(=N)N)NC(=O)[C@@H](N)CCCNC(=N)N)Cc1ccccc1)C(=O)O
6 |  | 0.1 | 10000 | CC[C@H](C)[C@H](NC(C#N)[C@H](Cc1ccc(O)cc1)NC(=O)C1CCCN1C(=O)[C@H](CCCN=C(N)N)NC(=O)[C@@H](N)CCCN=C(N)N)C(=O)N[C@@H](CC(C)C)C(=O)O (some centres undefined)
7 |  | 105 |  | CC(C)C[C@H](NC(=O)[C@@H](Cc1ccccc1)NC(=O)[C@H](Cc1ccc(O)cc1)NC(=O)[C@@H]1CCCN1C(=O)[C@H](CCCN=C(N)N)NC(=O)[C@@H](N)CCCN=C(N)N)C(=O)O
8 |  | 200 |  | CC[C@@H](C)[C@@H](NC(=O)[C@H](Cc1ccc(O)cc1)NC(=O)[C@@H]1CCCN1C(=O)[C@H](CCCN=C(N)N)NC(=O)[C@@H](N)CCCN=C(N)N)C(=O)N[C@@H](Cc1ccccc1)C(=O)O
9 |  | 0.1 |  | CC[C@@H](C)[C@@H](NC[C@H](Cc1ccc(O)cc1)NC(=O)[C@@H]1CCCN1C(=O)[C@H](CCCN=C(N)N)NC(=O)[C@@H](N)CCCN=C(N)N)C(=O)N[C@@H](CC(C)C)C(=O)O
10 | 8000 |  |  | CC[C@@H](C)[C@H](CN[C@@H](Cc1ccccc1)C(=O)O)NC(=O)[C@H](Cc1ccc(O)cc1)NC(=O)[C@@H]1CCCN1C(=O)[C@H](CCCNC(=N)N)NC(=O)[C@@H](N)CCCNC(=N)N (H-RRPY-X2)
11 |  | 0.1 |  | CC[C@@H](C)[C@H](CN[C@@H](Cc1ccccc1)C(=O)O)NC(=O)[C@H](Cc1ccc(O)cc1)NC(=O)[C@@H]1CCCN1C(=O)[C@H](CCCN=C(N)N)NC(=O)[C@@H](N)CCCN=C(N)N (H-RRPY-X2)
12 | 900 |  |  | CC[C@H](C)[C@H](NC(=O)[C@H](Cc1ccc(O)cc1)NC(=O)[C@@H]1CCCN1C(=O)[C@H](CCCN=C(N)N)NC(=O)[C@@H](N)CCCN=C(N)N)C(=O)C[C@H](Cc1ccccc1)C(=O)O (mixture of isomers) [listing 1 of 2 here]
13 |  | 1.1 |  | CC[C@H](C)[C@H](NC(=O)[C@H](Cc1ccc(O)cc1)NC(=O)[C@@H]1CCCN1C(=O)[C@H](CCCN=C(N)N)NC(=O)[C@@H](N)CCCN=C(N)N)C(=O)C[C@H](Cc1ccccc1)C(=O)O (mixture of isomers) [listing 2 of 2 here]
14 | 15 | 66.6 |  | CC(C)C[C@H](NC(=O)C(CC(=O)[C@H](Cc1ccc(O)cc1)NC(=O)[C@@H]1CCCN1C(=O)[C@H](CCCNC(=N)N)NC(=O)[C@@H](N)CCCNC(=N)N)Cc1ccccc1)C(=O)O (single isomer, unassigned)
15 | 120 |  |  | CC[C@H](C)[C@H](NC(=O)[C@H](Cc1ccc(O)cc1)NC(=O)[C@@H]1CCCN1C(=O)[C@H](CCCN=C(N)N)NC(=O)[C@@H](N)CCCN=C(N)N)C(=O)C[C@H](Cc1ccccc1)C(=O)O (stereo in doubt; 13a) [listing 1 of 2 here]
16 |  | 8.3 |  | CC[C@H](C)[C@H](NC(=O)[C@H](Cc1ccc(O)cc1)NC(=O)[C@@H]1CCCN1C(=O)[C@H](CCCN=C(N)N)NC(=O)[C@@H](N)CCCN=C(N)N)C(=O)C[C@H](Cc1ccccc1)C(=O)O (stereo in doubt; 13a) [listing 2 of 2 here]
17 | 1200 |  |  | CC[C@H](C)[C@H](NC(=O)[C@H](Cc1ccc(O)cc1)NC(=O)[C@@H]1CCCN1C(=O)[C@H](CCCN=C(N)N)NC(=O)[C@@H](N)CCCN=C(N)N)C(=O)C[C@H](Cc1ccccc1)C(=O)O (stereo in doubt; 13b) [listing 1 of 2 here]
18 |  | 0.8 |  | CC[C@H](C)[C@H](NC(=O)[C@H](Cc1ccc(O)cc1)NC(=O)[C@@H]1CCCN1C(=O)[C@H](CCCN=C(N)N)NC(=O)[C@@H](N)CCCN=C(N)N)C(=O)C[C@H](Cc1ccccc1)C(=O)O (stereo in doubt; 13b) [listing 2 of 2 here]
19 | 1500 |  |  | CC[C@H](C)[C@H](NC(=O)[C@H](Cc1ccc(O)cc1)NC(=O)[C@@H]1CCCN1C(=O)[C@H](CCCN=C(N)N)NC(=O)[C@@H](N)CCCN=C(N)N)C(=O)C[C@H](Cc1ccccc1)C(=O)O (stereo in doubt; 13c) [listing 1 of 2 here]
20 |  | 0.6 |  | CC[C@H](C)[C@H](NC(=O)[C@H](Cc1ccc(O)cc1)NC(=O)[C@@H]1CCCN1C(=O)[C@H](CCCN=C(N)N)NC(=O)[C@@H](N)CCCN=C(N)N)C(=O)C[C@H](Cc1ccccc1)C(=O)O (stereo in doubt; 13c) [listing 2 of 2 here]
